Source: ChEMBL document CHEMBL2390953, “Pyridinylpyrimidines selectively inhibit human methionine aminopeptidase-1” (Bioorg Med Chem, 2013)

Legend:
[1] = target: Methionine aminopeptidase 2 (Homo sapiens, UniProt P50579); assay: biochemical
Description: Inhibition of human recombinant GST-6XHis-tagged full-length cytosolic METAP2 expressed in cabbage looper BTI-TN-5B1-4 cells using Met-Pro-p-nitroanilide as substrate after 20 mins by spectrophotometric analysis in presence of Bacillus coagulans GST-tagged proline iminopeptidase

[2] = target: Methionine aminopeptidase 1 (Homo sapiens, UniProt P53582)
Description: Inhibition of human recombinant full-length cytosolic METAP1 expressed in Escherichia coli BL21(DE3) using Met-Pro-p-nitroanilide as substrate after 20 mins by spectrophotometric analysis in presence of Bacillus coagulans GST-tagged proline iminopeptidase

Homo sapiens = species: Homo sapiens; assay: Selectivity ratio of EC50 for human recombinant GST-6XHis-tagged full-length cytosolic METAP2 to EC50 for human recombinant full-length cytosolic METAP1
[3] = target: T1, Proline iminopeptidase (Bacillus coagulans) (UniProt P46541); assay: Inhibition of Bacillus coagulans GST-tagged proline iminopeptidase using Pro-p-nitroanilide as substrate at 10 uM relative to control; conditions: Heyndrickxia coagulans
T1 sequence (whole entry): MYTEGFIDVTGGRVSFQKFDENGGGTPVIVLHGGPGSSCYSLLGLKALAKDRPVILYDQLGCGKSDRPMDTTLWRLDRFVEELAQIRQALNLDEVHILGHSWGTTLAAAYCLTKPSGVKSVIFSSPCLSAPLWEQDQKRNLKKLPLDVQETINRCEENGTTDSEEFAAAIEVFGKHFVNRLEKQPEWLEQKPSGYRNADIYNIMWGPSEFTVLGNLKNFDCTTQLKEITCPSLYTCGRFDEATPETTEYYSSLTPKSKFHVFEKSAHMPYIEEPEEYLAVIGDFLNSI

[4] = target: T1, Proline iminopeptidase (Bacillus coagulans); assay: Inhibition of Bacillus coagulans GST-tagged proline iminopeptidase using Pro-p-nitroanilide as substrate at 100 uM relative to control; conditions: Heyndrickxia coagulans

Methionine aminopeptidase 2, sequence (P50579 whole entry): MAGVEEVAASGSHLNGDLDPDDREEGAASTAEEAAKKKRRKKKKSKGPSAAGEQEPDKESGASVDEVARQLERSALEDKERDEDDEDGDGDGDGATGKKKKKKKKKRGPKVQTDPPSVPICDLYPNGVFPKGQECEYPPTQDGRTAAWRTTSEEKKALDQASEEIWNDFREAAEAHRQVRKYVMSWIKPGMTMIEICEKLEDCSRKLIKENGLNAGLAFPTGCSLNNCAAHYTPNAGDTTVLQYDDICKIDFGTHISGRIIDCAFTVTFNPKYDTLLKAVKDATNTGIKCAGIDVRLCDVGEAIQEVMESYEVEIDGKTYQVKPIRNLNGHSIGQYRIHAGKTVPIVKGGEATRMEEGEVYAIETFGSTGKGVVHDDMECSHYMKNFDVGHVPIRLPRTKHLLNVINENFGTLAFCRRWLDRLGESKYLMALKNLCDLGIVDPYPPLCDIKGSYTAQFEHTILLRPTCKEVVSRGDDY

For `Cc1nc(-c2ccc(Cl)cn2)nc(NC[C@H](NC(=O)CCCCc2ccccc2)c2ccccc2)c1Cl`, the IC50 [1] was over 30 µM, the IC50 [2] was 1.3 µM and the Ratio EC50 (Homo sapiens) was over 23.

`Cc1nc(-c2ccc(Cl)cn2)nc(NC[C@H](NC(=O)CCCN2CCNCC2)c2ccccc2)c1Cl` showed an IC50 [1] of 1.2 µM, an IC50 [2] of 0.036 µM and a Ratio EC50 (Homo sapiens) of 33.

Work on `COc1ccnc(-c2nc(C)c(Cl)c(NC[C@H](NC(=O)CCCN3CCNCC3)c3ccccc3)n2)c1` yielded an IC50 [1] of 14 µM, an IC50 [2] of 0.53 µM and a Ratio EC50 (Homo sapiens) of 26.

`Cc1nc(-c2ccc(Cl)cn2)nc(NC[C@H](NCCCCc2ccco2)c2ccccc2)c1Cl` gave an IC50 [1] of over 300 µM, an IC50 [2] of 0.33 µM and a Ratio EC50 (Homo sapiens) of over 909.

With `CCCOc1ccc(CCCCN[C@@H](CNc2nc(-c3ccc(Cl)cn3)nc(C)c2Cl)c2ccccc2)cc1` the IC50 [1] was over 300 µM, the IC50 [2] was 1.2 µM and the Ratio EC50 (Homo sapiens) was over 250.

In the case of `Cc1nc(-c2ccc([N+](=O)[O-])cn2)nc(NC[C@H](NC(=O)CCCN2CCNCC2)c2ccccc2)c1Cl`, the IC50 [1] is reported as 14 µM, the IC50 [2] is reported as 0.3 µM and the Ratio EC50 (Homo sapiens) is reported as 47.

With `Cc1nc(-c2ccc(Cl)cn2)nc(NC[C@H](NCCc2ccccc2)c2ccccc2)c1Cl` the IC50 [1] was over 100 µM, the IC50 [2] was 0.26 µM and the Ratio EC50 (Homo sapiens) was over 384.

`Cc1nc(-c2ccc(F)cn2)nc(NC[C@H](NC(=O)CCCN2CCNCC2)c2ccccc2)c1Cl` showed an IC50 [1] of 1.2 µM, an IC50 [2] of 0.049 µM and a Ratio EC50 (Homo sapiens) of 24.

In the case of `Cc1nc(-c2ccccn2)nc(SCCc2ccccc2)c1Cl`, the IC50 [1] is reported as over 100 µM.

In the case of `Cc1nc(-c2ccc(Cl)cn2)nc(NC[C@H](NCc2ccccc2)c2ccccc2)c1Cl`, the IC50 [1] is reported as 31 µM, the IC50 [2] is reported as 0.22 µM and the Ratio EC50 (Homo sapiens) is reported as 141.

Molecule `Cc1nc(-c2ccccn2)nc(NC2CCN(c3ncc(C(F)(F)F)cc3Cl)CC2)c1Cl` has an IC50 [1] of over 100 µM.

For `Cc1nc(-c2ccc(Cl)cn2)nc(NC[C@H](NCCCCn2cccc2)c2ccccc2)c1Cl`, the IC50 [1] was over 100 µM, the IC50 [2] was 0.5 µM and the Ratio EC50 (Homo sapiens) was over 200.

`Cc1nc(-c2ccc(Cl)cn2)nc(NC[C@H](NCCCCc2ccc(Cl)cc2)c2ccccc2)c1Cl` gave an IC50 [1] of over 300 µM, an IC50 [2] of 0.57 µM and a Ratio EC50 (Homo sapiens) of over 526.

`Cc1nc(-c2ccccn2)nc(NC[C@H](NCCCN2CCN(CCO)CC2)c2ccccc2)c1Cl` gave an IC50 [1] of 101 µM.

`Cc1nc(-c2ccc(N3CCCC3)cn2)nc(NC[C@H](NC(=O)CCCN2CCNCC2)c2ccccc2)c1Cl` gave an IC50 [1] of 1.1 µM, an IC50 [2] of 1.7 µM and a Ratio EC50 (Homo sapiens) of 1.1.

With `COc1cccnc1-c1nc(C)c(Cl)c(NC[C@H](NC(=O)CCCN2CCNCC2)c2ccccc2)n1` the IC50 [1] was over 300 µM, the IC50 [2] was 2.5 µM and the Ratio EC50 (Homo sapiens) was over 120.

With `Cc1nc(-c2ccc(Cl)cn2)nc(NC[C@H](NC(=O)CCCCCc2ccccc2)c2ccccc2)c1Cl` the IC50 [1] was over 30 µM, the IC50 [2] was 0.67 µM and the Ratio EC50 (Homo sapiens) was over 45.

`Cc1nc(-c2ccc(Cl)cn2)nc(NC[C@H](NCCCCc2ccccc2)c2ccccc2)c1Cl` was tested, and the IC50 [1] was over 100 µM.

Molecule `Cc1nc(-c2ccc(Cl)cn2)nc(NC[C@H](NCCCCCc2ccccc2)c2ccccc2)c1Cl` has an IC50 [1] of over 100 µM, an IC50 [2] of 0.78 µM and a Ratio EC50 (Homo sapiens) of over 138.

For `Cc1nc(-c2ccccn2)nc(NC[C@H](NCCCCN2CCNCC2)c2ccccc2)c1Cl`, the IC50 [1] was 188 µM.

`Cc1nc(-c2ncccc2Cl)nc(NC[C@H](NC(=O)CCCN2CCNCC2)c2ccccc2)c1Cl` showed an IC50 [1] of over 300 µM, an IC50 [2] of 7.6 µM and a Ratio EC50 (Homo sapiens) of over 39.

Molecule `Cc1nc(-c2ccc(Cl)cn2)nc(NC[C@H](NCCCCc2ccc3ccccc3n2)c2ccccc2)c1Cl` has an IC50 [1] of over 300 µM, an IC50 [2] of 0.69 µM and a Ratio EC50 (Homo sapiens) of over 435.

Molecule `Cc1cc(NCCc2ccccc2)nc(-c2ccccn2)n1` has an IC50 [1] of over 100 µM and an IC50 [2] of over 100 µM.

Molecule `Cc1nc(-c2ccccn2)nc(NCCc2ccccc2)c1C` has an IC50 [1] of over 100 µM and an IC50 [2] of over 100 µM.

In the case of `Cc1nc(-c2ccc(N(C)C)cn2)nc(NC[C@H](NC(=O)CCCN2CCNCC2)c2ccccc2)c1Cl`, the IC50 [1] is reported as 1.7 µM, the IC50 [2] is reported as 0.14 µM and the Ratio EC50 (Homo sapiens) is reported as 12.

Work on `Cc1nc(-c2ccc(Cl)cn2)nc(NC[C@H](NCCCCc2ccc(O)cc2)c2ccccc2)c1Cl` yielded an IC50 [1] of over 300 µM, an IC50 [2] of 0.42 µM and a Ratio EC50 (Homo sapiens) of over 714.

Work on `Cc1nc(-c2ccc(Cl)cn2)nc(NCC(CCCCc2ccccc2)c2ccccc2)c1Cl` (configuration not stated) yielded an IC50 [1] of over 200 µM, an IC50 [2] of 0.2 µM and a Ratio EC50 (Homo sapiens) of over 1000.

With `Cc1nc(-c2ccccn2)nc(NC[C@H](NCCCN2CCNCC2)c2ccccc2)c1Cl` the IC50 [1] was 108 µM.

For `Cc1nc(-c2ccccn2)nc(NC[C@H](NC(=O)CCCN2CCN(CCO)CC2)c2ccccc2)c1Cl`, the IC50 [1] was over 300 µM.

In the case of `Cc1nc(-c2ccc(Cl)cn2)nc(NC[C@H](NCCCCc2ccc(C#N)cc2)c2ccccc2)c1Cl`, the inhibition [3] is reported as 27%, the IC50 [1] is reported as 16 µM and the IC50 [2] is reported as 0.52 µM. The inhibition [4] was 97% and the Ratio EC50 (Homo sapiens) was 31.

Molecule `Cc1nc(-c2ccccn2)nc(SCc2ccccc2)c1Cl` has an IC50 [1] of over 100 µM.

With `Cc1nc(-c2ccc(Cl)cn2)nc(NCC(CCCCCc2ccccc2)c2ccccc2)c1Cl` (racemic) the IC50 [1] was over 200 µM, the IC50 [2] was 2.3 µM and the Ratio EC50 (Homo sapiens) was over 87.

With `Cc1nc(-c2ccccn2)nc(NC[C@H](NCCCCN2CCN(CCO)CC2)c2ccccc2)c1Cl` the IC50 [1] was 197 µM.

Work on `Cc1nc(-c2ccc(Cl)cn2)nc(NC[C@H](NC(=O)Cc2ccccc2)c2ccccc2)c1Cl` yielded an IC50 [1] of 28 µM, an IC50 [2] of 0.7 µM and a Ratio EC50 (Homo sapiens) of 40.

`COc1cccc(-c2nc(C)c(Cl)c(NC[C@H](NC(=O)CCCN3CCNCC3)c3ccccc3)n2)n1` was tested, and the IC50 [1] was over 30 µM, the IC50 [2] was 20 µM and the Ratio EC50 (Homo sapiens) was over 1.5.

`COc1ccc(-c2nc(C)c(Cl)c(NC[C@H](NC(=O)CCCN3CCNCC3)c3ccccc3)n2)nc1` gave an IC50 [1] of over 300 µM, an IC50 [2] of 0.27 µM and a Ratio EC50 (Homo sapiens) of over 1110.

`Cc1nc(-c2cccc(Cl)n2)nc(NC[C@H](NC(=O)CCCN2CCNCC2)c2ccccc2)c1Cl` gave an IC50 [1] of over 30 µM, an IC50 [2] of 7.2 µM and a Ratio EC50 (Homo sapiens) of over 4.2.

In the case of `Cc1nc(-c2ccc(Cl)cn2)nc(NCC(CCCc2ccccc2)c2ccccc2)c1Cl` (configuration not stated), the IC50 [1] is reported as over 200 µM, the IC50 [2] is reported as 0.16 µM and the Ratio EC50 (Homo sapiens) is reported as over 1250.

Molecule `Cc1nc(-c2ccc(Cl)cn2)nc(NC[C@H](NCCCCc2cccs2)c2ccccc2)c1Cl` has an IC50 [1] of over 300 µM, an IC50 [2] of 0.38 µM and a Ratio EC50 (Homo sapiens) of over 789.

In the case of `Cc1nc(-c2ccc(Cl)cn2)nc(NC[C@H](NCCCCCCc2ccccc2)c2ccccc2)c1Cl`, the IC50 [1] is reported as over 30 µM, the IC50 [2] is reported as 0.71 µM and the Ratio EC50 (Homo sapiens) is reported as over 42.

Molecule `Cc1nc(-c2ccccn2)nc(NC[C@H](NC(=O)CCCN2CCNCC2)c2ccccc2)c1Cl` has an IC50 [1] of over 300 µM.

Work on `Cc1nc(-c2ccc(Cl)cn2)nc(NCC(CCc2ccccc2)c2ccccc2)c1Cl` (configuration not stated) yielded an IC50 [1] of over 200 µM, an IC50 [2] of 0.063 µM and a Ratio EC50 (Homo sapiens) of over 3180.

Work on `Cc1nc(-c2ccccn2)nc(NCCNc2cccc(C(F)(F)F)n2)c1Cl` yielded an IC50 [1] of over 100 µM.

Molecule `Cc1nc(-c2cc(Cl)ccn2)nc(NC[C@H](NC(=O)CCCN2CCNCC2)c2ccccc2)c1Cl` has an IC50 [1] of over 300 µM, an IC50 [2] of 0.73 µM and a Ratio EC50 (Homo sapiens) of over 411.

With `Cc1nc(-c2ccc(Cl)cn2)nc(NC[C@H](NCCCc2ccccc2)c2ccccc2)c1Cl` the IC50 [1] was over 300 µM, the IC50 [2] was 0.26 µM and the Ratio EC50 (Homo sapiens) was over 1150.

`Cc1nc(-c2cccnc2)nc(NCc2ccccc2)c1Cl` gave an IC50 [1] of over 100 µM and an IC50 [2] of over 100 µM.

For `Cc1nc(-c2ccccn2)nc(N2CCN(CCO)CC2)c1Cl`, the IC50 [1] was over 100 µM.

`Cc1nc(-c2ccccn2)nc(NCCNc2ccc(C(F)(F)F)cn2)c1Cl` was tested, and the IC50 [1] was over 100 µM.

`Cc1nc(-c2ccc(Br)cn2)nc(NC[C@H](NC(=O)CCCN2CCNCC2)c2ccccc2)c1Cl` showed an IC50 [1] of 53 µM, an IC50 [2] of 0.33 µM and a Ratio EC50 (Homo sapiens) of 161.

`Cc1nc(-c2ccc(Cl)cn2)nc(NC[C@H](NC(=O)CCCc2ccccc2)c2ccccc2)c1Cl` showed an IC50 [1] of over 30 µM, an IC50 [2] of 0.16 µM and a Ratio EC50 (Homo sapiens) of over 188.

`Cc1nc(-c2ccccn2)nc(NC[C@H](NC(=O)CCN2CCN(CCO)CC2)c2ccccc2)c1Cl` was tested, and the IC50 [1] was 114 µM.

`Cc1nc(-c2ccc(Cl)cn2)nc(NC[C@H](NC(=O)CCc2ccccc2)c2ccccc2)c1Cl` gave an IC50 [1] of over 30 µM, an IC50 [2] of 0.093 µM and a Ratio EC50 (Homo sapiens) of over 323.
